Assay results published in ChEMBL document CHEMBL4483862, “Open-source discovery of chemical leads for next-generation chemoprotective antimalarials” (2018).

Test system: Plasmodium berghei
Experiment: Luciferase/luciferin-expressing antifolate-resistant parasites were used to infect a culture of HepG2 cells that were pre-incubated with compounds. Infected hepatocytes emit light due to the luciferase reaction. Assay results are presented as the percent inhibition of light emission compared to control. […]
Format: functional
Settings: sporozoite; for IC90: read-out: LUCIFERASE INFECTION ASSAY - IC90
[1] = read-out: LUCIFERASE INFECTION ASSAY - IC50

| Compound | IC90 | IC50 [1] | also measured |
| --- | --- | --- | --- |
| Clc1ccccc1/C=C/c1nc(-c2ccccn2)no1 | > 11.6 µM | – | IC50 (FFLUC_HILL_SLOPE 3.15, FFLUC_R_SQUARED 0.695, PBLUC_HILL_SLOPE 0.408, PBLUC_R_SQUARED 0.784, read-out: LUCIFERASE INFECTION ASSAY - IC50): 0.446 µM |
| CC(=O)c1ccccc1OCCOC(=O)/C(C#N)=C/c1cc(C)n(CCC(C)C)c1C | 1.72 µM | – | IC50 (HEPG2TOX_HILL_SLOPE 0.948, HEPG2TOX_R_SQUARED 0.676, PBLUC_HILL_SLOPE 14.8, PBLUC_R_SQUARED 0.615, read-out: LUCIFERASE INFECTION ASSAY - IC50): 1.48 µM |
| O=C(Oc1ccc(/C=N/Nc2nc3ccccc3s2)c(OC(=O)c2ccco2)c1)c1ccco1 | > 10 µM | – | IC50 (PBLUC_HILL_SLOPE 13.1, PBLUC_R_SQUARED 0.411, read-out: LUCIFERASE INFECTION ASSAY - IC50): 9.2 µM |
| CCCc1cc(=O)nc(SCC(=O)NC(=O)c2ccc(C(C)(C)C)cc2)[nH]1 | > 10 µM | > 10 µM | – |
| ONC(=NC(=S)Nc1cc(Cl)ccc1Cl)c1ccccn1 | 9.52 µM | – | IC50 (HEPG2TOX_HILL_SLOPE 1.13, HEPG2TOX_R_SQUARED 0.776, PBLUC_HILL_SLOPE 15.8, PBLUC_R_SQUARED 0.357, read-out: LUCIFERASE INFECTION ASSAY - IC50): 8.29 µM |
| CCCCNC(=O)c1c(NC(=O)c2cccc(OC)c2)nc2ccccn12 | 4.95 µM | – | IC50 (HEPG2TOX_HILL_SLOPE 2.8, HEPG2TOX_R_SQUARED 0.959, PBLUC_HILL_SLOPE 5.29, PBLUC_R_SQUARED 0.462, read-out: LUCIFERASE INFECTION ASSAY - IC50): 3.27 µM |
| S=C(NCc1ccccc1Cl)NC12CC3CC(CC(C3)C1)C2 | > 9.85 µM | – | IC50 (HEPG2TOX_HILL_SLOPE 5.09, HEPG2TOX_R_SQUARED 0.92, PBLUC_HILL_SLOPE 1.78, PBLUC_R_SQUARED 0.451, read-out: LUCIFERASE INFECTION ASSAY - IC50): 7.44 µM |
| NC(=O)c1ccc(C(F)(F)F)n(CC(=O)c2ccc3c(c2)OCCO3)c1=O | > 10 µM | > 10 µM | – |
| CCn1c(C)nc2cc(C(=O)NNS(=O)(=O)c3cccc(Cl)c3Cl)ccc21.O=S(=O)(O)c1cccc(Cl)c1Cl | > 10 µM | > 10 µM | – |
| CCCn1c(N)c(C(=O)CN(C)Cc2cccc(Cl)c2Cl)c(=O)[nH]c1=O | 3.38 µM | – | IC50 (PBLUC_HILL_SLOPE 149, PBLUC_R_SQUARED 0.302, read-out: LUCIFERASE INFECTION ASSAY - IC50): 3.33 µM |
| CCN(CC)S(=O)(=O)c1cccc(-c2nnc(SCc3nc(=O)c4cccc(C)c4[nH]3)n2CC(C)C)c1 | > 10 µM | – | IC50 (HEPG2TOX_HILL_SLOPE 0.901, HEPG2TOX_R_SQUARED 0.0979, read-out: LUCIFERASE INFECTION ASSAY - IC50): > 10 µM |
| Cc1ccc(NC(=O)/C(=N/N)c2c(-c3ccccc3)nc3ccccn23)c(Br)c1 | > 10 µM | > 10 µM | – |
| CSc1nc(N2CCNCC2)c2sc3c(c2n1)CCCC3 | > 10.3 µM | – | IC50 (PBLUC_HILL_SLOPE 1.21, PBLUC_R_SQUARED 0.0625, read-out: LUCIFERASE INFECTION ASSAY - IC50): > 10.3 µM |
| CN(C)CCNC(=O)c1cccc(-c2cnc3ccc(-c4cccc(F)c4)nn23)c1 | 9.29 µM | – | IC50 (PBLUC_HILL_SLOPE 5.28, PBLUC_R_SQUARED 0.0552, read-out: LUCIFERASE INFECTION ASSAY - IC50): 6.13 µM |
| Cc1sc2ncnc(Sc3nc4ncccn4n3)c2c1C | > 2 µM | > 2 µM | – |
| CCN1C(=O)N(CCCc2cccnc2)C(=O)C12CCN(Cc1ccc3c(c1)Cc1ccccc1-3)CC2 | 2.58 µM | – | IC50 (HEPG2TOX_HILL_SLOPE 1.68, HEPG2TOX_R_SQUARED 0.934, PBLUC_HILL_SLOPE 11.7, PBLUC_R_SQUARED 0.742, read-out: LUCIFERASE INFECTION ASSAY - IC50): 2.14 µM |
| O=C1C=CC(=O)N1c1ccc(F)cc1F | 13.8 µM | – | IC50 (FFLUC_HILL_SLOPE 8.62, FFLUC_R_SQUARED 0.718, PBLUC_HILL_SLOPE 4.26, PBLUC_R_SQUARED 0.573, read-out: LUCIFERASE INFECTION ASSAY - IC50): 8.24 µM |
| CN(C)CCNC(=O)c1ccc(-c2cn3c(-c4ccsc4)cnc3cn2)cc1 | > 8.43 µM | > 8.43 µM | – |
| COc1ccccc1-c1ccc2ncc(-c3ccc(CO)cc3)n2n1 | > 10 µM | 7.5 µM | – |
| CCCCC(CC)C(=O)Nc1nc2ccccn2c1C(=O)NC1CCCCC1 (stereo unspecified) | > 8.58 µM | – | IC50 (PBLUC_HILL_SLOPE 8.64, PBLUC_R_SQUARED 0.333, read-out: LUCIFERASE INFECTION ASSAY - IC50): 8.01 µM |
| Cc1cc(C(=O)CSc2nc3cc([N+](=O)[O-])ccc3n2-c2ccccc2)c(C)n1Cc1ccco1 | > 10 µM | > 10 µM | – |
| O=C(c1c[nH]c(-c2ccnc(N3CCCC3)c2)c1)c1cc(Cl)ccc1O | 1.6 µM | – | IC50 (HEPG2TOX_HILL_SLOPE 4.74, 0.999, HEPG2TOX_R_SQUARED 0.925, 0.982, PBLUC_HILL_SLOPE 1.70, 2.23, PBLUC_R_SQUARED 0.381, 0.812, read-out: LUCIFERASE INFECTION ASSAY - IC50): 0.598 µM |

| Compound | IC90 | IC50 [1] | also measured |
| --- | --- | --- | --- |
| Cc1cc(Cl)ccc1OCc1nnc(-c2ccccn2)[nH]1 | 3.63 µM | – | IC50 (HEPG2TOX_HILL_SLOPE 11.7, HEPG2TOX_R_SQUARED 0.29, PBLUC_HILL_SLOPE 34.3, PBLUC_R_SQUARED 0.372, read-out: LUCIFERASE INFECTION ASSAY - IC50): 3.41 µM |
| COc1cc(OC)cc(-c2cc3c(Nc4cccc(S(C)(=O)=O)c4)nccc3n2C)c1 | > 10 µM | – | IC50 (PBLUC_HILL_SLOPE 2.63, PBLUC_R_SQUARED 0.0611, read-out: LUCIFERASE INFECTION ASSAY - IC50): 6.92 µM |
| CCN(Cc1ccccc1)c1ccc(/C=N/Nc2ccc(C)c(Cl)c2)cc1 | > 10 µM | – | IC50 (FFLUC_HILL_SLOPE 2.55, FFLUC_R_SQUARED 0.818, read-out: LUCIFERASE INFECTION ASSAY - IC50): > 10 µM |
| O=C(NC1CC1)c1ccc(CN(Cc2ccco2)Cc2nc(-c3ccc(F)cc3)no2)cc1 | 0.482 µM | – | IC50 (PBLUC_HILL_SLOPE 9.42, PBLUC_R_SQUARED 0.908, read-out: LUCIFERASE INFECTION ASSAY - IC50): 0.382 µM |
| C=CCNC(=S)Nc1ccc(Oc2cc(C(F)(F)F)cc(C(F)(F)F)c2)cc1 | 6.91 µM | 3.04 µM | – |
| CC(NC(=O)COc1ccc(-c2nnco2)cc1)c1ccc(Cl)cc1Cl (stereo unspecified) | > 10 µM | – | IC50 (FFLUC_HILL_SLOPE 0.318, FFLUC_R_SQUARED 0.016, read-out: LUCIFERASE INFECTION ASSAY - IC50): > 10 µM |
| Cc1ccc(C(=O)CCC(=O)NCc2ccccc2)s1 | > 10 µM | > 10 µM | – |
| Cc1cc(OCC(=O)N(C)Cc2nc3ccsc3c(=O)[nH]2)ccc1C(C)C | > 10 µM | > 10 µM | – |
| Cc1nc(SCc2cccc(C(F)(F)F)c2)c2c(-c3cccs3)csc2n1 | > 10 µM | – | IC50 (FFLUC_HILL_SLOPE 83.3, FFLUC_R_SQUARED 0.372, read-out: LUCIFERASE INFECTION ASSAY - IC50): > 10 µM |
| CCc1c2c(nc3sc(C(=O)Nc4nsc(-c5ccccc5)n4)c(N)c13)CC(C)(C)CC2=O | > 10 µM | – | IC50 (PBLUC_HILL_SLOPE 1.15, PBLUC_R_SQUARED 0.361, read-out: LUCIFERASE INFECTION ASSAY - IC50): 6.36 µM |
| Cc1ccc(C)c(S(=O)(=O)N(CC(=O)N2CCN(C(=O)c3ccco3)CC2)c2cccc(C(F)(F)F)c2)c1 | 8.16 µM | – | IC50 (PBLUC_HILL_SLOPE 4.06, PBLUC_R_SQUARED 0.673, read-out: LUCIFERASE INFECTION ASSAY - IC50): 4.75 µM |
| C/C=C/c1ccc(Oc2nc(C(F)(F)F)nc3ccccc23)c(OC)c1 | 6.79 µM | – | IC50 (HEPG2TOX_HILL_SLOPE 2.94, HEPG2TOX_R_SQUARED 0.97, PBLUC_HILL_SLOPE 2.81, PBLUC_R_SQUARED 0.724, read-out: LUCIFERASE INFECTION ASSAY - IC50): 3.1 µM |
| Cc1ccc(C2NC(=S)NC3=C2C(=O)c2ccccc23)cc1 (stereo unspecified) | > 10.8 µM | > 10.8 µM | – |
| CCOC(=O)c1cnn(-c2c(Cl)cc(Cl)cc2Cl)c1-c1ccccc1 | > 8.34 µM | > 8.34 µM | – |
| CNC(=O)c1ccc(CN(C2CC2)S(=O)(=O)c2cc(C)ccc2C)cc1 | 5.44 µM | – | IC50 (HEPG2TOX_HILL_SLOPE 1.06, HEPG2TOX_R_SQUARED 0.677, PBLUC_HILL_SLOPE 1.71, PBLUC_R_SQUARED 0.782, read-out: LUCIFERASE INFECTION ASSAY - IC50): 1.51 µM |
| Cc1noc(C)c1COc1ccc(C(=O)OCC(=O)NC(C)C23CC4CC(CC(C4)C2)C3)cc1 (stereo unspecified) | > 10 µM | > 10 µM | – |
| O=C(CNc1ccccc1-c1ccccc1)Nc1cc(Cl)ccc1F | > 10 µM | > 10 µM | – |
| O=C(Nc1nc2ccccn2c1C(=O)NC1CCCCC1)c1cc(F)ccc1F | 2.12 µM | – | IC50 (HEPG2TOX_HILL_SLOPE 1.14, HEPG2TOX_R_SQUARED 0.869, PBLUC_HILL_SLOPE 2.93, PBLUC_R_SQUARED 0.682, read-out: LUCIFERASE INFECTION ASSAY - IC50): 1 µM |
| CSc1sc(C#N)c(C)c1-c1ccon1 | > 14 µM | – | IC50 (PBLUC_HILL_SLOPE 9.35, PBLUC_R_SQUARED 0.116, read-out: LUCIFERASE INFECTION ASSAY - IC50): > 14 µM |
| CC12CCC(CC1=O)C2(C)C (stereo unspecified) [CAMPHOR] | > 21.7 µM | – | IC50 (FFLUC_HILL_SLOPE 14.9, FFLUC_R_SQUARED 0.342, read-out: LUCIFERASE INFECTION ASSAY - IC50): > 21.7 µM |
| COc1ccc(OC)c(NC(=O)c2ccc(NC3=C(Cl)C(=O)N(C4CCCCC4)C3=O)cc2)c1 | 8.05 µM | – | IC50 (HEPG2TOX_HILL_SLOPE 3.19, HEPG2TOX_R_SQUARED 0.935, PBLUC_HILL_SLOPE 2.39, PBLUC_R_SQUARED 0.579, read-out: LUCIFERASE INFECTION ASSAY - IC50): 3.21 µM |
